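How tested: cells in 96-well plates exposed to compound for 48 hours at five concentrations. GI50 marks 50% less growth. TGI marks complete inhibition of growth.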

Common to all, as to assay: NCI-60 cell line screen, 48 h
The test system of assay [1] is U251 CNS.
Assay [2] concerns MCF7 breast.
Assay [3] relates to OVCAR-3 ovarian.
Assay [4] concerns HT29 colon.
For assay [5], the system named is A498 renal.
For assay [6], the system named is NCI/ADR-RES ovarian.
The subject of assay [7] is SNB-19 CNS.
Assay [8] concerns A549 NSCLC.
Assay [9] concerns HCC-2998 colon.
Assay [10] relates to CAKI-1 renal.

On to `CCOc1ccc2c(-c3ccnc(Nc4cccc(C(F)(F)F)c4)n3)cnn2n1`, for which the GI50 is 6.43 µM in assay [1]; 0.979 µM in assay [2]; 8.57 µM in [3]; 10.1 µM in assay [4]; 8.2 µM in [5]; 9.04 µM in [6]. In addition, the GI50 in [7] was 13.6 µM; in assay [8] it was 4.4 µM; in assay [9] it was 22.4 µM; in [10], more than 14.7 µM. Further, the TGI was more than 22.5 µM in assay [1]; more than 12.2 µM in assay [2]; more than 25 µM in assay [3]; more than 25 µM in [4]; more than 25 µM in [5]; more than 25 µM in assay [6]. Further, the TGI is more than 25 µM in [7], 9.19 µM in [8], more than 25 µM in assay [9] and more than 25 µM in [10].
In the case of `CCN(CCc1ccc(F)cc1)c1ccc(CO)c(Cl)c1`, the GI50 in [1] was 4.06 µM; in [2], 4.72 µM; in assay [3] it was 4.27 µM; in [4], 11.3 µM; in assay [5] it was 0.12 µM; in assay [6], 11.8 µM. The GI50 in assay [7] is 13.2 µM; in assay [8], 9.36 µM; in assay [9], 12.6 µM; in [10] it was 4.23 µM. The TGI in assay [1] stood at 17.3 µM; in assay [2], 19.9 µM; in assay [3] it was 15.4 µM; in assay [4] it was 27.3 µM; in assay [5] it was 0.268 µM; in assay [6] it was 28.1 µM. The TGI amounted to 26.6 µM in [7], 24.4 µM in assay [8], 26.5 µM in [9] and 17.2 µM in [10].
For `CCc1nc2cc(/C=C/C(=O)NO)c(F)cc2c(=O)n1CCc1ccccc1`, the GI50 in [1] was 0.872 µM; in assay [2] it was 0.407 µM; in assay [3] it was 0.385 µM; in [4] it was 0.588 µM; in assay [5], 1.02 µM; in assay [6] it was 0.227 µM. Moreover, the GI50 was 1.32 µM in assay [7], 1.35 µM in [8], 1.57 µM in assay [9] and 0.822 µM in assay [10]. For the same compound, the TGI was determined as 3.18 µM in [1]; 15.1 µM in assay [2]; 4.76 µM in [3]; 12.5 µM in [4]; 3.39 µM in assay [5]; 2.54 µM in [6]. The TGI is 12.4 µM in assay [7], 5.39 µM in assay [8], 11.3 µM in assay [9] and 6.2 µM in assay [10].
For `Nc1nc(N)c2ncn(Cc3c(Cl)cccc3Cl)c2n1`, the TGI in assay [1], in assay [2], in assay [3], in assay [4], in [5] and in assay [6] was more than 100 µM each time. Besides, the TGI in [7], in assay [8], in assay [9] and in assay [10] was more than 100 µM each time.
As for `COc1cc(C)c(N(C)C(=O)CN(C)C)cc1Nc1nc(Nc2cccc(F)c2C(N)=O)c2cc[nH]c2n1`, the GI50 in assay [1] is more than 25 µM; in assay [2] it was 2.7 µM; in assay [3] it was more than 25 µM; in [4], 1.37 µM; in assay [5], more than 13.9 µM; in [6], more than 25 µM. The GI50 in assay [7] was more than 25 µM; in assay [8], more than 25 µM; in assay [9] it was more than 23.1 µM; in [10], more than 23.9 µM. In addition, the TGI in assay [1], in assay [2], in [3], in assay [4], in [5] and in assay [6] was more than 25 µM each time. Moreover, the TGI in assay [7], in assay [8], in assay [9] and in assay [10] was more than 25 µM each time.
Take `O=C(Oc1ccccc1Cl)c1cccnc1Nc1ccnc(C(F)(F)F)c1`: the GI50 in [1] was 17.6 µM; in [2] it was 3.66 µM; in assay [3], 16.5 µM; in assay [4], 25.3 µM; in assay [5] it was 17.3 µM; in assay [6], 16.5 µM. For the same compound, the GI50 in assay [7] was 23.4 µM; in [8], 30.2 µM; in assay [9], 15.6 µM; in assay [10], 23.1 µM. In addition, the TGI in assay [1] amounted to 32.9 µM; in assay [2] it was 17.5 µM; in assay [3] it was 32.6 µM; in [4], 71.5 µM; in [5] it was 37.2 µM; in assay [6], 62.8 µM. Also, the TGI is 70.1 µM in [7], more than 100 µM in assay [8], 30 µM in assay [9] and 50 µM in [10].
On to `COc1ccc(OC)c(-c2cn3nc(-c4c[nH]c5ccc(Br)cc45)sc3n2)c1`, for which the GI50 in [1] is 2.02 µM; in [2] it was 1.77 µM; in assay [3], 1.96 µM; in assay [4] it was 2.28 µM; in [5], 10.2 µM; in assay [6], 3.38 µM. Besides, the GI50 is 4.51 µM in [7], 2.31 µM in assay [8], 2.67 µM in [9] and 2.04 µM in assay [10]. The TGI is 4.09 µM in assay [1]; 5.13 µM in [2]; 4.32 µM in assay [3]; 4.75 µM in assay [4]; 24.6 µM in [5]; 10.9 µM in [6]. In addition, the TGI in assay [7] stood at 18.6 µM; in assay [8], 5.31 µM; in assay [9] it was 7.75 µM; in assay [10], 6.22 µM.
As to `O=C(/C=C/c1ccccc1)c1ccc(O)c(CN2CCN(c3cc4c(cc3F)c(=O)c(C(=O)O)cn4C3CC3)CC2)c1`, the GI50 in assay [1] was 0.389 µM; in [2], 0.688 µM; in assay [3] it was 1.91 µM; in assay [4] it was 1.58 µM; in assay [5] it was 0.941 µM; in assay [6], 7.86 µM. For the same compound, the GI50 in assay [7] is 0.984 µM; in assay [8] it was 3.17 µM; in assay [9] it was 3.11 µM; in assay [10], 2.42 µM. In addition, the TGI in assay [1] is more than 100 µM; in assay [2], more than 100 µM; in assay [3], more than 100 µM; in assay [4], more than 100 µM; in assay [5], 4.93 µM; in assay [6], more than 100 µM. Also, the TGI in [7] was more than 100 µM; in assay [8], more than 100 µM; in assay [9] it was 53.6 µM; in [10] it was more than 100 µM.
As to `C=C(C)[C@@H]1CC[C@]2(C)[C@H](CC=C3[C@@H]4CC(C)(C)CC[C@]4(C(=O)OC)CC[C@]32C)[C@@]1(C)CC/C(N)=N/O`, the GI50 in assay [1] was 1.81 µM; in assay [2] it was 2.13 µM; in assay [3] it was 1.67 µM; in [4] it was 1.88 µM; in assay [5] it was 2.05 µM; in assay [6], 2.09 µM. Also, the GI50 in assay [7] is 2.21 µM; in [8], 2.15 µM; in assay [9], 1.86 µM; in [10] it was 2.4 µM. The TGI in assay [1] amounted to 3.69 µM; in assay [2] it was 5.3 µM; in assay [3] it was 3.18 µM; in [4] it was 5.11 µM; in assay [5], 4.48 µM; in [6] it was 5.42 µM. In addition, the TGI in assay [7] stood at 5.73 µM; in [8], 7.75 µM; in assay [9], 3.67 µM; in assay [10] it was 15.1 µM.
Consider `COc1cc(/C=C\c2cc(/C=C\c3ccc(O)c(OC)c3)n(C(=O)Nc3ccc(C(F)(F)F)cc3)n2)ccc1O`, for which the GI50 is 2.49 µM in assay [1]; 1.97 µM in assay [2]; 3.41 µM in [3]; 2.02 µM in assay [4]; 5.81 µM in [5]; 3.51 µM in assay [6]. The GI50 was 3.16 µM in assay [7], 4.11 µM in [8], 2.04 µM in assay [9] and 3.02 µM in [10]. The TGI in assay [1] was 6.86 µM; in assay [2], 10.7 µM; in assay [3] it was 26.7 µM; in assay [4], 4.13 µM; in [5], 20.6 µM; in [6] it was more than 100 µM. Besides, the TGI is 11.2 µM in [7], more than 100 µM in assay [8], 3.82 µM in assay [9] and 12.7 µM in assay [10].
Turning to `CC(C)(C)c1ccc(NC(=O)c2cc(=O)c3ccccc3[nH]2)c(C(C)(C)C)c1O`, the GI50 in [1] was 3.59 µM; in assay [2], 3.35 µM; in assay [3], 4.84 µM; in assay [4], 2.21 µM; in assay [5], 4.33 µM; in [6], 9.11 µM. For the same compound, the GI50 in assay [7] is 13.7 µM; in [8], 3.23 µM; in assay [9], 3.04 µM; in [10], 5.74 µM. The TGI in assay [1] came to 12.9 µM; in assay [2] it was 12.9 µM; in assay [3] it was 15.9 µM; in assay [4], 4.78 µM; in [5] it was 19.7 µM; in assay [6], 24.4 µM. Further, the TGI in [7] amounted to 30 µM; in assay [8] it was 12.6 µM; in assay [9] it was 10.4 µM; in assay [10], 19.2 µM.
